Laboratory results from patent publication US8828976B2, “Identification and use of compounds that affect the fidelity of eukaryotic translation initiation codon selection” (priority 2010, dated 2014).
Counter-ions that a name gives are not always drawn. Like-named read-outs stand apart in the source and are kept apart here.

Assays:
[1] = tested on: UUG start codon of Fluc mRNA (fidelity of start codon selection); assay: Dual luciferase assay, primary screen (FlucUUG/RlucAUG), BY4741 with pFuugRaug; assay type: cell-based, Saccharomyces cerevisiae; conditions: for raw FlucUUG value: at concentrations that decrease the other luciferase values
Excerpt: In the assay, Renilla luciferase (Rluc) and firefly luciferase (Fluc) genes are expressed from a single plasmid, each under the control of a separate constitutive promoter and terminator, allowing transcription of the two genes as separate mRNAs. The Fluc mRNA has a non-AUG start codon (FIG. 2A). […] UUG was chosen as the near cognate start site in the screen, allowing easy identification of compounds that either increase expression (chemically reproducing a Sui^− phenotype, decreasing fidelity) or decrease expression (enhancing fidelity) of UUG relative to AUG in the dual luciferase assay.
BY4741 expressing the RaugFaug plasmid was included in the 1st and last column as an additional control. Compounds to be tested were supplied from the NCI DTP library in 96 well format at 1 mM in DMSO. DMSO was included in all control wells. 1.5 μL of compound (or DMSO) was added to each well of the yeast plate, followed by incubation at 30° C. for 4 hours while shaking. […] The same protocol was used when testing the other libraries, with the appropriate solvent controls. The Fuug/Raug ratio of each sample with drug was compared to the average Fuug/Raug ratio of the solvent only controls on the same plate.
Every row contains DMSO-only controls for each strain. For each compound-treated sample, the ratio of [Fluc(UUG)/Rluc(AUG)]/[Fluc(AUG)/Rluc(AUG)] is calculated using the DMSO-only Fluc(AUG)/Rluc(AUG) control from that row (there is one for each row in a plate). This ratio is the Fluc(UUG)/Fluc(AUG) ratio normalized to Rluc(AUG) activity in each sample. […] Potential changes include pipetting inaccuracies, differences in lysis efficiencies or global effects on gene expression due to differences in cell densities during growth. The internal Rluc control also helps screen out compounds that affect gene expression or cell growth globally rather than having specific effects on translation from non-AUG codons.
When a hit was identified, rescreening and counter screening assays were done using 300 μM to 10 nM of the compound, i.e., the identified “hit,” to measure concentration dependence.

[2] = tested on: AUG start codon of Fluc mRNA; assay: Dual luciferase counter-screen (FlucAUG/RlucAUG), BY4741 with pFaugRaug; assay type: cell-based, Saccharomyces cerevisiae; conditions: for FlucAUG/RlucAUG ratio in the presence of compound: BY4741, screening conditions
Description: The compounds were then tested in secondary assays.
The dual luciferase assay was carried out as in Kolitz et al. (RNA, vol. 15, no. 1, pp. 138-152, 2009), with the following modifications to screening conditions: An over-night culture of wild type yeast (BY4741 transformed with pFuugRaug) were diluted to an OD600 of approximately 0.2 in SC-Ura, and 50 μL were aliquoted to each well of a 96 well plate. BY4741 expressing the RaugFaug plasmid was included in the 1st and last column as an additional control. Compounds to be tested were supplied from the NCI DTP library in 96 well format at 1 mM in DMSO. DMSO was included in all control wells. 1.5 μL of compound (or DMSO) was added to each well of the yeast plate, followed by incubation at 30° C. for 4 hours while shaking. To measure luciferase activity, 1 μL of culture was added directly to 50 μL of 1× Passive Lysis Buffer (Promega), incubated 40-60 minutes at room temperature, then luciferase activity measured using a Turner Modulus Microplate Reader (Kolitz et al., RNA, vol. 15, no. 1, pp. 138-152, 2009). The same protocol was used when testing the other libraries, with the appropriate solvent controls. The Fuug/Raug ratio of each sample with drug was compared to the average Fuug/Raug ratio of the solvent only controls on the same plate.
Changes in the Fluc(UUG)/Rluc(AUG) ratio could be caused by a compound altering the use of UUG as a start codon (the desired target) or a variety of other effects such as changes in transcription of one gene, changes in mRNA or protein half-life, or inhibition or activation of one of the luciferase enzymes. […] Compounds that specifically increase use of near-cognate codons as start sites will not produce an effect in this Fluc(AUG)/Rluc(AUG) assay, whereas compounds that alter other process will not be specific for the Fluc(UUG)/Rluc(AUG) system and will still produce effects with the Fluc(AUG)/Rluc(AUG) reporter. Compounds that are not specific for effects on Fluc(UUG) expression will not be pursued further.

[3] = tested on: UUG start codon of PRE2 uORF; assay: uORF luciferase assay (PRE2 uORF with UUG start codon fused to firefly luciferase); assay type: cell-based, Saccharomyces cerevisiae; conditions: wild type yeast, normalized to DMSO alone
Description: BY4741 was transformed with pNTI33 or pNTI32. Transformants were incubated with compound and luciferase activity measured as described for the dual luciferase assay. The solvent-only firefly luciferase activity was used for normalization.
To further validate the effects of compounds that pass the primary and counterscreens, an additional reporter assay was performed. The assay uses a 5′-upstream open reading frame (uORF) that begins with a UUG codon and was shown in yeast to be translated, especially under amino acid starvation conditions (Castilho-Valavicius et al., Genetics, vol. 124, pp. 483-495, 1990). This uORF was fused both in-frame and out-of-frame to the firefly luciferase gene and the effect of the compounds on initiation on this physiologically relevant near-cognate start codon assessed.
This construct was used to assess the effect of the compounds on translation mediated by the non-AUG start codon of the uORFs. The PRE2 uORF has an UUG start codon, with the consensus sequence (−3)AAA(−1) directly upstream of UUG (FIG. 15). In the control reporter, the luciferase coding region is out-of-frame from the start codon of the uORF.

yeast cells = assay: Growth / toxicity to wild type yeast
[4] = tested on: FlucUUG/RlucAUG ratio in hc eIF1 strain; assay: Dual luciferase assay in strain over-expressing eIF1 (H3984, hc eIF1); assay type: cell-based, Saccharomyces cerevisiae; conditions: hc eIF1 vs BY4741; for suppression of the compound's effect on UUG initiation by over-expression of eIF1: 60 μM NSC218351, 3.8 μM NSC92218
Description: H3984 data are an average of 2 independent experiments. Error bars represent average deviation. The concentration of NSC218351 was 60 μM, and NSC92218 was 3.8 μM. Haplo-insufficiency results are averages of data from 2 separate transformants. The concentration of NSC218351 was 33 μM, and NSC92218 was 7 μM. FlucAUG/RlucAUG expression ratio with DMSO alone was used to normalize the Fluc/Rluc ratio for both FlucAUG and FlucUUG for each strain (normalized FlucAUG/RlucAUG with DMSO alone is 1 for each strain).
Data, from 2 independent experiments, were analyzed.

[5] = tested on: Sui- strain sui1-1 (eIF1 D83G); assay: Growth assay of Sui- strain sui1-1 (his4-303) on SC-His / SC plates with compound-soaked paper strips; conditions: for growth of sui1-1 close to the compound source: paper strip with 10 mM NSC92218 or 50 mM NSC218351, FIG. 18 column 1 and 5
Excerpt: Compound or solvent soaked paper strips were placed on agar plates. Yeast were spotted onto the plate as 4 rows increasingly distant from the paper strip and grown for 4 days on SC-His and 2 days on SC.
An additional reporter assay utilizes a yeast strain in which the AUG start codon of the HIS4 gene has been changed to AUU (his4-303) (Huang et al., Genes Dev., vol. 11, pp. 2396-2413, 1997). This strain is a histidine auxotroph and cannot grow on medium lacking histidine. However, Sui^− mutations allow initiation from the AUU start site or, more commonly, a UUG three codons downstream from it, restoring expression of His4p and thus growth on His^− medium (Castilho-Valavicius et al., Genetics, vol. 124, pp. 483-495, 1990; Huang et al., Genes Dev., vol. 11, pp. 2396-2413, 1997; Yoon et al., Mol. Cell. Biol., vol. 12, pp. 248-260, 1992). Observing an alteration of the Sui^− phenotype is a more sensitive assay than rescuing growth of a wild type strain. […] Likewise, if the compound increases the fidelity of initiation, then growth should be compromised.
Yeast with the his4-303 allele from an over-night culture were washed with water and diluted to an OD600 between 0.1-1. Strips of sterile Whatman paper were soaked with compound or solvent and placed on an agar plate of the appropriate media. The yeast culture was spotted onto the plate at various distances from the paper strips. The plates were incubated at 30° C. Diffusion creates a gradient of compound, which tends to enhance growth only in a certain range because of off-setting toxicity at high concentrations.
Chemically increasing use of near-cognate codons as start codons mimics the Sui^− phenotype. Sui^− mutations were originally identified in a screen that requires translation initiation at a non-AUG start codon in a mutant of the HIS4 gene (his4-303 allele) for growth on SC-His media (Donahue et al., Mol. Cell. Biol., vol. 8, no. 7, pp. 2955-2963, 1988). Compounds that increase the use of non-AUG start codons to a small degree should further increase growth of Sui^− strains with the his4-303 allele on SC-His media, chemically enhancing the Sui^− phenotype. To test this, a paper strip saturated with compound was placed onto a plate of media (SC or SC-His). Yeast with the his4-303 allele was spotted on the plate at various distances from the compound- or solvent-containing strips.

Sui- mutant eIF1 D83G = assay: Growth of Sui- mutant eIF1 D83G in His- culture (doubling time); assay type: cell-based, Saccharomyces cerevisiae; conditions: His- culture with compound; decreased from 8 hrs
Excerpt: Doubling times were quantified for two experiments by plotting Log2(OD600) vs. time. The slope of the line between −2.5<Log2(OD600)<2 equals 1/doubling time.
(§1) While small, the effects are reproducible. No effects on growth of Sui^− strains with mutations in other initiation factors (eIF1A, eIF2, and eIF5) have been detected.

[6] = tested on: Sui- strains with mutations in eIF1A, eIF2, and eIF5; assay: Growth of Sui- strains with mutations in other initiation factors; assay type: cell-based, Saccharomyces cerevisiae
Excerpt: as §1

[7] = tested on: near-cognate start codons; assay: Dual luciferase assay with Fluc reporters with different near-cognate start codons; assay type: cell-based, Saccharomyces cerevisiae; conditions: Fluc reporter with AUU start codon
Description: AAG and AGG are not used detectably as Fluc initiation codons in yeast (Kolitz et al., RNA, vol. 15, no. 1, pp. 138-152, 2009) and were thus not tested. […] Efficiency of use of near cognate codons as initiation sites was measured with the dual luciferase assay in several Sui^− mutant strains. Translation from each alternative start codon in the Sui^− strain was normalized to translation from that codon in a wild type strain. Sui^− mutations increase the use of near cognates up to 18-fold (GUG in eIF1 D83G strain). However, in each mutant strain, translation from AUU is increased the least. Although it is not understood why AUU behaves anomalously, it is interesting that NSC218351 mimics this aspect of the behavior of the Sui^− mutations in initiation factors.

[8] = analogs of NSC92218, 8 μM, ratio normalized to DMSO control
[9] = 50 mM on the paper strip, SC-His

COc1cc(N)c2ncccc2c1Cl [Cpd 19, 5-chloro-6-methoxyquinolin-8-amine]
UUG/AUG (primary screen effect) [1, 8]: 0.94
AUG/AUG (counter screen effect) [2, 8]: 0.99

Nc1cc(I)c2cccnc2c1O [NSC92218, 7-amino-5-iodo-8-quinolinol hydrochloride]
increase of expression of the in-frame PRE2 uORF-Fluc reporter [3]: ~2 fold
concentration that does not affect growth of wild type yeast while the FlucUUG/RlucAUG ratio increases (yeast cells): 2 µM
increase of the FlucUUG/RlucAUG ratio [1]: 1.8 fold
minimal concentration required to achieve the 1.8-fold increase of the UUG/AUG ratio [1]: 15 µM
raw FlucUUG value [1]: did not change, or increases slightly
FlucAUG/RlucAUG ratio in the presence of compound [2]: did not change
reduction of the compound's effect in the eIF1 over-expressing strain relative to wild type cells ([4]; 3.8 μM): ~50%
suppression of the compound's effect on UUG initiation by over-expression of eIF1 [4]: partially
growth of sui1-1 in column 1 on SC-His relative to the inhibitory effect on SC ([5]; 2.5 mM on the paper strip): growth enhancement occurred
growth of sui1-1 on SC-His in columns 2 and 3 ([5]; 10 mM on the paper strip): enhanced growth
growth of sui1-1 close to the compound source [5]: prevented growth

O=C(O)c1nccc2ccccc12 [NSC218351, isoquinoline-1-carboxylic acid]
increase of expression of the in-frame PRE2 uORF-Fluc reporter [3]: approximately 1.5 fold
toxicity to yeast cells (yeast cells): not toxic
concentration that does not affect growth of wild type yeast while the FlucUUG/RlucAUG ratio increases (yeast cells): 50 µM
concentration at which growth was reduced (yeast cells; yeast): 300 µM
working concentrations at which toxicity is not a concern (yeast cells; yeast): 10 to 100 µM
minimal concentration for the effect, NSC218351 relative to NSC92218 ([1]; 60 μM vs 15 μM, higher for NSC218351): 4 fold
minimal concentration required to achieve the 1.8-fold increase of the UUG/AUG ratio ([1]; BY4741): 60 µM
increase of the FlucUUG/RlucAUG ratio ([1]; BY4741, 4 hours with compound, reached at 60 μM NSC218351 / 15 μM NSC92218): 1.8 fold
raw FlucUUG value [1]: increased slightly
raw RlucAUG value ([1]; pFuugRaug plasmid, increasing concentration): decreased
doubling time of eIF1 D83G (Sui- mutant eIF1 D83G): 7.35 h
FlucAUG/RlucAUG ratio in the presence of compound [2]: does not change
suppression of the compound's effect on UUG initiation by over-expression of eIF1 [4]: completely suppressed
growth of Sui- strains with mutations in other initiation factors (eIF1A, eIF2, and eIF5) [6]: No effects
growth of sui1-1 on SC-His in the column closest to the compound source ([5]; 12.5 mM on the paper strip, column 1): enhanced
growth of sui1-1 on selective media close to the drug source [5, 9]: inhibited
growth of sui1-1 on selective media farther from the source relative to DMSO [5, 9]: enhanced
growth of the eIF1 Sui- strains on His- plates ([5]; His- plates): enhances the growth
growth of sui1-1 close to the compound source [5]: slowed growth
initiation at AUU codons [7]: did not increase

C[C@@H]1C[C@@H]([C@H](O)CC2CC(=O)NC(=O)C2)C(=O)[C@@H](C)C1 [cycloheximide, reference compound]
effect on FlucUUG/RlucAUG ratio ([1]; BY4741 grown under screening conditions): altered
raw luciferase values relative to control values ([1]; cells grown under screening conditions, four hours): ~25%
FlucAUG/RlucAUG ratio in the presence of compound [2]: also altered
